Test results as given in PubChem BioAssay AID1963830 (Molecular Pharmacology Branch, DTP, NCI, 2024).
Several values for one entry are separate records, joined by “and”; a condition that tells them apart may be missing. Equal entries are not always repeated.

Test system: 922993-354-T-J3-PDC complex spheroid viability
Experiment: Anticancer human tumor 922993-354-T-J3-PDC patient-derived endometrial carcinoma cell line growth inhibition [POLQ]
Conditions: for viability, T/C: stronger effect = lower value
Protocol: Multicellular complex tumor spheroid response to Polymerase (POL) inhibitors (novobiocin, ART-558, RP6685) in combination with a variety of drugs and investigational agents in selected tumor cell lines
The POL inhibitors (novobiocin, ART-558, and RP6685) were evaluated both individually and in combination with standard of care and investigational anticancer small molecules within a complex spheroid model of solid tumors. . Complex spheroids include a stromal component modeled by human endothelial cells (HUVEC) and fibroblasts modeled by human mesenchymal stem cells (MSCs). The concentration ranges selected for each drug and investigational agent were based upon clinically achievable concentrations if the clinical Cmax of the agent was known.
Compounds. The drugs and investigational agents: novobiocin (NSC847541), ART-558 (NSC835418), RP-6685 (NSC848927), peposertib (NSC802822), ceralasertib (NSC780249), elimusertib (NSC800525), camonsertib (NSC841442), AZD-1390 (NSC803789), olaparib (NSC753686), talazoparib (NSC767125), rucaparib (NSC756644), sotorasib (NSC818433), MRTX-1133 (NSC836407), SN-38 (NSC673596), topotecan (NSC609699), epotoside (NSC141540), doxorubicin (NSC123127), gemcitabine (NSC613327), 5-fluorouracil (NSC19893), paclitaxel (NSC125973), vemurafenib (NSC761431), MSA-2 (NSC828583), SN-011 (NSC837082), adavosertib (NSC754352), prexasertib (NSC758257), carboplatin (NSC241240) and oxaliplatin (NSC266046), were obtained from the National Cancer Institute (NCI) Developmental Therapeutics Program Chemical Repository (21). The FDA-approved anticancer drug set is available from the Developmental Therapeutics Program at https://dtp.cancer.gov/organization/dscb/obtaining/. […] The stock solutions were prepared in dimethyl sulfoxide (DMSO, Sigma-Aldrich, St. Louis, MO, cat. D2650), except for the platinum compounds which were prepared in saline (Quality Biological, Gaithersburg, MD, cat. 114-055-101), at 800-fold the tested concentration and stored at -70 degrees C prior to their use. All drugs and investigational agents were tested over a range starting from a high concentration at or near the clinical Cmax and decreasing in half-log increments. If the clinical Cmax for an agent had not been determined, the highest concentration tested was 10 microM, except for SN-38, which was tested at a high concentration of 1 microM.
Cell Culture. All cells were maintained in an incubator at 37 degrees C and 5% CO2 with 95% humidity. The PDC lines were cultured according to standard operating procedures established by the NCI PDMR (https://pdmr.cancer.gov). Table 3 of the manuscript, lists the cell lines along with the number of the three cell types plated to form the mct-spheroids and media for tumor cell growth. After thawing, all PDC lines, except 997537-175-T-J1-PDC and 415267-285-R-J2-PDC, were cultured in Matrigel-coated flasks prepared with a working solution of 1X Ham's F-12 nutrient mix, without supplementation (Thermo Fisher Scientific, cat. 11765054), 100 U/mL penicillin-streptomycin (Thermo Fisher Scientific, cat. 15140122), and 2.5% Matrigel (Corning Inc., Corning, NY, cat. 354248) for the first three passages. The two PDC lines 997537-175-T-J1-PDC and 415267-285-R-J2-PDC were cultured on uncoated flasks. The 857933-349-R-J2-PDC line was cultured in 6C/Colon 1B media containing advanced DMEM/F-12 (Thermo Fisher Scientific, cat. 12634028), 10 mM HEPES (Thermo Fisher Scientific, cat. 15630080), 1X GlutaMAX supplement (Thermo Fisher Scientific, cat. 35050061), 0.1 mg/mL primocin (InvivoGen, San Diego, CA, cat. ant-pm-2), 10% defined fetal bovine serum, heat inactivated (HyClone Laboratories Inc., Logan, UT, cat. SH30070.03HI), 50% L-WRN conditioned media (ATCC, cat. CRL-3276), 1.25 mM N-Acetyl-L-cysteine (Sigma-Aldrich, cat. A9165), 10 mM nicotinamide (Sigma-Aldrich, cat. N0636), 1X B-27 supplement (Thermo Fisher Scientific, cat. 17504044), 1X N-2 supplement (Thermo Fisher Scientific, cat. […]

[1] = curve of first compound, second compound 0.0316 µM
[2] = curve of first compound, second compound 0.1 µM
[3] = curve of first compound, second compound 0.316 µM
[4] = curve of first compound, second compound 1 µM
[5] = curve of first compound, second compound 3.16 µM
[6] = curve of first compound, second compound 10 µM
[7] = second compound 0.0316 µM, first compound 0.0316 µM
[8] = second compound 0.0316 µM, first compound 0.1 µM
[9] = second compound 0.0316 µM, first compound 0.316 µM
[10] = second compound 0.0316 µM, first compound 1 µM
[11] = second compound 0.0316 µM, first compound 3.16 µM
[12] = second compound 0.0316 µM, first compound 10 µM
[13] = second compound 0.1 µM, first compound 0.0316 µM
[14] = second compound 0.1 µM, first compound 0.1 µM
[15] = second compound 0.1 µM, first compound 0.316 µM
[16] = second compound 0.1 µM, first compound 1 µM
[17] = second compound 0.1 µM, first compound 3.16 µM
[18] = second compound 0.1 µM, first compound 10 µM
[19] = second compound 0.316 µM, first compound 0.0316 µM
[20] = second compound 0.316 µM, first compound 0.1 µM
[21] = second compound 0.316 µM, first compound 0.316 µM
[22] = second compound 0.316 µM, first compound 1 µM
[23] = second compound 0.316 µM, first compound 3.16 µM
[24] = second compound 0.316 µM, first compound 10 µM
[25] = second compound 1 µM, first compound 0.0316 µM
[26] = second compound 1 µM, first compound 0.1 µM
[27] = second compound 1 µM, first compound 0.316 µM
[28] = second compound 1 µM, first compound 1 µM
[29] = second compound 1 µM, first compound 3.16 µM
[30] = second compound 1 µM, first compound 10 µM
[31] = second compound 3.16 µM, first compound 0.0316 µM
[32] = second compound 3.16 µM, first compound 0.1 µM
[33] = second compound 3.16 µM, first compound 0.316 µM
[34] = second compound 3.16 µM, first compound 1 µM
[35] = second compound 3.16 µM, first compound 3.16 µM
[36] = second compound 3.16 µM, first compound 10 µM
[37] = second compound 10 µM, first compound 0.0316 µM
[38] = second compound 10 µM, first compound 0.1 µM
[39] = second compound 10 µM, first compound 0.316 µM
[40] = second compound 10 µM, first compound 1 µM
[41] = second compound 10 µM, first compound 3.16 µM
[42] = second compound 10 µM, first compound 10 µM
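Note: spheroids exposed to the agents for one week.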
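Throughout, for viability, T/C: 100% = DMSO vehicle control wells.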

SMILES: CC1COCCN1c1cc(C2(O)CC3CCC(C2)O3)c2cnn(-c3ccn[nH]3)c2n1 (configuration not stated) + COC1C(OC(N)=O)C(O)C(Oc2ccc3c(O)c(NC(=O)c4ccc(O)c(CC=C(C)C)c4)c(=O)oc3c2C)OC1(C)C
- IC50 [1]: 337 nM
- IC50 [2]: 371 nM
- IC50 [3]: 361 nM
- IC50 [4]: 383 nM
- IC50 [5]: 361 nM
- IC50 [6]: 393 nM
- viability, T/C [7]: 101%
- viability, T/C [8]: 80.6%
- viability, T/C [9]: 54.1%
- viability, T/C [10]: 23.1%
- viability, T/C [11]: 8.69%
- viability, T/C [12]: 11.8%
- viability, T/C [13]: 107%
- viability, T/C [14]: 68.5%
- viability, T/C [15]: 66.4%
- viability, T/C [16]: 26.7%
- viability, T/C [17]: 10.4%
- viability, T/C [18]: 10.7%
- viability, T/C [19]: 96%
- viability, T/C [20]: 89.6%
- viability, T/C [21]: 53.3%
- viability, T/C [22]: 20.5%
- viability, T/C [23]: 9.11%
- viability, T/C [24]: 10.8%
- viability, T/C [25]: 99.5%
- viability, T/C [26]: 93.7%
- viability, T/C [27]: 55.1%
- viability, T/C [28]: 21.1%
- viability, T/C [29]: 8.57%
- viability, T/C [30]: 11.2%
- viability, T/C [31]: 100%
- viability, T/C [32]: 84.9%
- viability, T/C [33]: 54.1%
- viability, T/C [34]: 23.2%
- viability, T/C [35]: 10.7%
- viability, T/C [36]: 9.88%
- viability, T/C [37]: 93.8%
- viability, T/C [38]: 76.1%
- viability, T/C [39]: 60.5%
- viability, T/C [40]: 17.4%
- viability, T/C [41]: 10.4%
- viability, T/C [42]: 10.3%

SMILES: CNCc1ccc(-c2[nH]c3cc(F)cc4c3c2CCNC4=O)cc1
- viability, T/C (compound 0.0316 µM): 94.6% and 105% and 109%
- viability, T/C (compound 0.1 µM): 96.8% and 100% and 90.3%
- viability, T/C (compound 0.316 µM): 93.7% and 96% and 96.1%
- viability, T/C (compound 1 µM): 105% and 97.1% and 96%
- viability, T/C (compound 3.16 µM): 85.2% and 99.3% and 90.9%
- viability, T/C (compound 10 µM): 86.2% and 96.2% and 71.4%
- IC50 (curve of compound): > 10000 nM

SMILES: CC(C)n1c(=O)n(C)c2cnc3cc(F)c(-c4ccc(OCCCN5CCCCC5)nc4)cc3c21
- viability, T/C (compound 0.0316 µM): 109% and 101% and 100%
- viability, T/C (compound 0.1 µM): 103% and 94.2% and 94%
- viability, T/C (compound 0.316 µM): 107% and 99.9% and 97.4%
- viability, T/C (compound 1 µM): 99.4% and 95.3% and 105%
- viability, T/C (compound 3.16 µM): 90% and 92.7% and 83.1%
- viability, T/C (compound 10 µM): 63.3% and 83% and 68%
- IC50 (curve of compound): > 10000 nM

SMILES: Nc1ccn(C2OC(CO)C(O)C2(F)F)c(=O)n1 (configuration not stated) + Nc1ccc(C#CCN(C(=O)Cc2ncc(C(F)(F)F)cc2C(F)(F)F)c2ccc(F)cc2)nn1
- IC50 [1]: < 31.6 nM
- IC50 [2]: < 31.6 nM
- IC50 [3]: < 31.6 nM
- IC50 [4]: < 31.6 nM
- IC50 [5]: < 31.6 nM
- IC50 [6]: < 31.6 nM
- viability, T/C [7]: 25.5%
- viability, T/C [8]: 25%
- viability, T/C [9]: 20.9%
- viability, T/C [10]: 22.2%
- viability, T/C [11]: 22.2%
- viability, T/C [12]: 17.2%
- viability, T/C [13]: 25.9%
- viability, T/C [14]: 25.5%
- viability, T/C [15]: 18.4%
- viability, T/C [16]: 21.9%
- viability, T/C [17]: 21.3%
- viability, T/C [18]: 19.4%
- viability, T/C [19]: 24.9%
- viability, T/C [20]: 24%
- viability, T/C [21]: 22.1%
- viability, T/C [22]: 20.1%
- viability, T/C [23]: 22.4%
- viability, T/C [24]: 20.5%
- viability, T/C [25]: 23.1%
- viability, T/C [26]: 19.1%
- viability, T/C [27]: 22.7%
- viability, T/C [28]: 21.8%
- viability, T/C [29]: 21.3%
- viability, T/C [30]: 23.3%
- viability, T/C [31]: 23.4%
- viability, T/C [32]: 18.7%
- viability, T/C [33]: 19.1%
- viability, T/C [34]: 20.4%
- viability, T/C [35]: 21.1%
- viability, T/C [36]: 20.8%
- viability, T/C [37]: 23.2%
- viability, T/C [38]: 18.9%
- viability, T/C [39]: 21.9%
- viability, T/C [40]: 18.4%
- viability, T/C [41]: 20.1%
- viability, T/C [42]: 17.5%

SMILES: CC1COCCN1c1cc(C2(O)CC3CCC(C2)O3)c2cnn(-c3ccn[nH]3)c2n1 (configuration not stated)
- viability, T/C (compound 0.0316 µM): 91% and 98.1% and 100%
- viability, T/C (compound 0.1 µM): 90.2% and 88.6% and 96.7%
- viability, T/C (compound 0.316 µM): 54.3% and 58.2% and 96.7%
- viability, T/C (compound 1 µM): 25.7% and 28.6% and 63.1%
- viability, T/C (compound 3.16 µM): 9.69% and 10.5% and 42.5%
- viability, T/C (compound 10 µM): 10.9% and 8.97% and 19.9%
- IC50 (curve of compound): 399 nM and 441 nM and 2040 nM

SMILES: COc1cc2cc(C(=O)CCC(=O)O)sc2cc1OC
- viability, T/C (compound 0.0316 µM): 106% (2×) and 103%
- viability, T/C (compound 0.1 µM): 100% and 98.9% and 101%
- viability, T/C (compound 0.316 µM): 108% and 102% and 98.9%
- viability, T/C (compound 1 µM): 99.2% and 104% (2×)
- viability, T/C (compound 3.16 µM): 106% and 105% and 116%
- viability, T/C (compound 10 µM): 85.2% and 83.3% and 64.8%
- IC50 (curve of compound): > 10000 nM
